Results from PubChem BioAssay (NCI).
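Compound exposure: 48 hours, 5 concentrations, 96-well plates. The concentration for 50% growth inhibition is given as GI50. At the TGI there is no net growth.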

Key:
Assay in all cases: NCI-60 cell line screen, 48 h
786-0 renal = tested on: 786-0 renal
A498 renal = tested on: A498 renal
A549 NSCLC = tested on: A549 NSCLC
ACHN renal = tested on: ACHN renal
BT-549 breast = tested on: BT-549 breast
CAKI-1 renal = tested on: CAKI-1 renal
CCRF-CEM leukemia = tested on: CCRF-CEM leukemia
COLO 205 colon = tested on: COLO 205 colon
DU-145 prostate = tested on: DU-145 prostate
EKVX NSCLC = tested on: EKVX NSCLC
HCC-2998 colon = tested on: HCC-2998 colon
HCT-116 colon = tested on: HCT-116 colon
HCT-15 colon = tested on: HCT-15 colon
HL-60(TB) leukemia = tested on: HL-60(TB) leukemia
HOP-62 NSCLC = tested on: HOP-62 NSCLC
HOP-92 NSCLC = tested on: HOP-92 NSCLC
HS 578T breast = tested on: HS 578T breast
HT29 colon = tested on: HT29 colon
IGROV1 ovarian = tested on: IGROV1 ovarian
K-562 leukemia = tested on: K-562 leukemia
KM12 colon = tested on: KM12 colon
LOX IMVI melanoma = tested on: LOX IMVI melanoma
M14 melanoma = tested on: M14 melanoma
MALME-3M melanoma = tested on: MALME-3M melanoma
MCF7 breast = tested on: MCF7 breast
MDA-MB-231 breast = tested on: MDA-MB-231 breast
MDA-MB-435 = tested on: MDA-MB-435
MOLT-4 leukemia = tested on: MOLT-4 leukemia
NCI-H226 lung = tested on: NCI-H226 lung
NCI-H23 lung = tested on: NCI-H23 lung
NCI-H460 lung = tested on: NCI-H460 lung
NCI-H522 lung = tested on: NCI-H522 lung
NCI/ADR-RES ovarian = tested on: NCI/ADR-RES ovarian
OVCAR-3 ovarian = tested on: OVCAR-3 ovarian
OVCAR-4 ovarian = tested on: OVCAR-4 ovarian
OVCAR-5 ovarian = tested on: OVCAR-5 ovarian
OVCAR-8 ovarian = tested on: OVCAR-8 ovarian
PC-3 prostate = tested on: PC-3 prostate
RPMI-8226 leukemia = tested on: RPMI-8226 leukemia
RXF 393 renal = tested on: RXF 393 renal
SF-268 CNS = tested on: SF-268 CNS
SF-295 CNS = tested on: SF-295 CNS
SF-539 CNS = tested on: SF-539 CNS
SK-MEL-2 melanoma = tested on: SK-MEL-2 melanoma
SK-MEL-28 melanoma = tested on: SK-MEL-28 melanoma
SK-MEL-5 melanoma = tested on: SK-MEL-5 melanoma
SK-OV-3 ovarian = tested on: SK-OV-3 ovarian
SN12C renal = tested on: SN12C renal
SNB-19 CNS = tested on: SNB-19 CNS
SNB-75 CNS = tested on: SNB-75 CNS
SR leukemia = tested on: SR leukemia
SW-620 colon = tested on: SW-620 colon
T-47D breast = tested on: T-47D breast
TK-10 renal = tested on: TK-10 renal
U251 CNS = tested on: U251 CNS
UACC-257 melanoma = tested on: UACC-257 melanoma
UACC-62 melanoma = tested on: UACC-62 melanoma
UO-31 renal = tested on: UO-31 renal

## C=C(CN1c2ccccc2Sc2ccccc21)c1ccc(C(=O)Nc2ccccc2N)cc1
786-0 renal
  GI50: 0.832 µM
  TGI: > 100 µM
A498 renal
  GI50: > 100 µM
  TGI: > 100 µM
A549 NSCLC
  GI50: 11.4 µM
  TGI: > 100 µM
ACHN renal
  GI50: > 71.7 µM
  TGI: > 100 µM
BT-549 breast
  GI50: > 27.3 µM
  TGI: > 100 µM
CAKI-1 renal
  GI50: 8.83 µM
  TGI: > 50.2 µM
CCRF-CEM leukemia
  GI50: 0.101 µM
COLO 205 colon
  GI50: 34.7 µM
  TGI: > 100 µM
DU-145 prostate
  GI50: > 100 µM
  TGI: > 100 µM
EKVX NSCLC
  GI50: > 86 µM
  TGI: > 100 µM
HCC-2998 colon
  GI50: 14.6 µM
  TGI: > 86.3 µM
HCT-116 colon
  GI50: 11.1 µM
  TGI: > 100 µM
HCT-15 colon
  GI50: > 42.5 µM
  TGI: > 100 µM
HL-60(TB) leukemia
  GI50: 0.184 µM
  TGI: > 100 µM
HOP-62 NSCLC
  GI50: > 46.7 µM
  TGI: > 100 µM
HOP-92 NSCLC
  GI50: > 47.9 µM
  TGI: > 100 µM
HS 578T breast
  GI50: > 100 µM
  TGI: > 100 µM
HT29 colon
  GI50: 11.5 µM
  TGI: > 100 µM
IGROV1 ovarian
  GI50: 28.1 µM
  TGI: > 100 µM
K-562 leukemia
  GI50: 2.47 µM
  TGI: > 100 µM
KM12 colon
  GI50: 5.84 µM
  TGI: > 100 µM
LOX IMVI melanoma
  GI50: > 52.7 µM
  TGI: > 100 µM
M14 melanoma
  GI50: 32.9 µM
  TGI: > 100 µM
MALME-3M melanoma
  GI50: > 23 µM
  TGI: > 100 µM
MCF7 breast
  GI50: > 42 µM
  TGI: > 100 µM
MDA-MB-231 breast
  GI50: 20.3 µM
  TGI: > 79.4 µM
MDA-MB-435
  GI50: 3.87 µM
  TGI: 25 µM
MOLT-4 leukemia
  GI50: 0.276 µM
  TGI: > 65.2 µM
NCI-H226 lung
  GI50: 8.53 µM
  TGI: > 100 µM
NCI-H23 lung
  GI50: > 100 µM
  TGI: > 100 µM
NCI-H460 lung
  GI50: 17.7 µM
  TGI: > 100 µM
NCI-H522 lung
  GI50: 1.63 µM
  TGI: > 100 µM
NCI/ADR-RES ovarian
  GI50: 8.77 µM
  TGI: > 100 µM
OVCAR-3 ovarian
  GI50: 8.08 µM
  TGI: > 100 µM
OVCAR-4 ovarian
  GI50: 12 µM
  TGI: 97.3 µM
OVCAR-5 ovarian
  GI50: > 100 µM
  TGI: > 100 µM
OVCAR-8 ovarian
  GI50: > 80.4 µM
  TGI: > 100 µM
PC-3 prostate
  GI50: 5.07 µM
  TGI: > 100 µM
RPMI-8226 leukemia
  GI50: 0.597 µM
  TGI: > 25.4 µM
RXF 393 renal
  GI50: > 100 µM
  TGI: > 100 µM
SF-268 CNS
  GI50: 25.7 µM
  TGI: > 100 µM
SF-295 CNS
  GI50: > 38.3 µM
  TGI: > 100 µM
SF-539 CNS
  GI50: > 26 µM
  TGI: > 100 µM
SK-MEL-2 melanoma
  GI50: > 100 µM
  TGI: > 100 µM
SK-MEL-28 melanoma
  GI50: 43.5 µM
  TGI: > 100 µM
SK-MEL-5 melanoma
  GI50: 44.7 µM
  TGI: > 100 µM
SK-OV-3 ovarian
  GI50: 11.7 µM
  TGI: > 100 µM
SN12C renal
  GI50: 8.07 µM
  TGI: > 100 µM
SNB-19 CNS
  GI50: > 54.3 µM
  TGI: > 100 µM
SNB-75 CNS
  GI50: 15.8 µM
  TGI: > 100 µM
SR leukemia
  GI50: 2.32 µM
  TGI: > 59.5 µM
SW-620 colon
  GI50: > 92.3 µM
  TGI: > 100 µM
T-47D breast
  GI50: 6.14 µM
  TGI: > 100 µM
TK-10 renal
  GI50: 23.9 µM
  TGI: > 100 µM
U251 CNS
  GI50: > 50.3 µM
  TGI: > 100 µM
UACC-257 melanoma
  GI50: 67.6 µM
  TGI: > 100 µM
UACC-62 melanoma
  GI50: 93 µM
  TGI: > 100 µM
UO-31 renal
  GI50: 2.03 µM
  TGI: > 100 µM
